The experiment concerns the target T1, human TRPV3 (Homo sapiens, UniProt Q8NET8).
T1 construct: expressed in transfected cells; host or cells: HEK293
T1 sequence (Q8NET8 1-790): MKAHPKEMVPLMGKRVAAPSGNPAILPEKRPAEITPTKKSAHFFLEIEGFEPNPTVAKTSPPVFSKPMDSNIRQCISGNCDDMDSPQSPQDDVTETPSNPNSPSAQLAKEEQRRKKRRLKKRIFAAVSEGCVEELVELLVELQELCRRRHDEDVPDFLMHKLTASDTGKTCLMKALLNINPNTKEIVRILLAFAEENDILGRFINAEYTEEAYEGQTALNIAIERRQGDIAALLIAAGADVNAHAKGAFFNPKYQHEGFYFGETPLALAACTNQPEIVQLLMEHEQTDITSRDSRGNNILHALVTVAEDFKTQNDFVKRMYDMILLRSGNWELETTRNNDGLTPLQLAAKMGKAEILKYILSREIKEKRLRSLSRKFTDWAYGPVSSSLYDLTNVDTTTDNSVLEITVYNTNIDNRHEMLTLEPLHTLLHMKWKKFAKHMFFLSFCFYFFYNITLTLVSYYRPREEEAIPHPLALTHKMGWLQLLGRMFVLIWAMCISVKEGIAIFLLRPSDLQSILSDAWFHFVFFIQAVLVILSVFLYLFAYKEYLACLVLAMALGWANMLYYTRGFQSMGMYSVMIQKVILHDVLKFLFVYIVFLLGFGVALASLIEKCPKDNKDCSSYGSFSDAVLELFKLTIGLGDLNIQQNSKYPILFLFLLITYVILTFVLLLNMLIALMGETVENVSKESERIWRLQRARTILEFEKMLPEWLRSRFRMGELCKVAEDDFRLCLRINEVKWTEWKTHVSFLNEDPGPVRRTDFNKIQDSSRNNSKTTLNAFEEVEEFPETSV
The experiment is described as follows: Calcium flux assay (FLIPR TETRA), recombinant HEK293 cells expressing TRPV3, 2-APB response. The settings on record: 2-APB at its EC80. It counts as cell-based. As for the experimental part: (i) In Vitro Methods-Calcium Flux Assays:
Experiments were conducted using the FLIPR TETRA®. On the day prior to the experiment, recombinant HEK293 cells that stably express human and mouse TRPV3 were removed from tissue culture flasks and plated in growth medium at 20,000 cells/well into black-walled clear-bottom 384-well BIOCOAT™ poly-D-lysine assay plates (BD Biosciences, Bedford, Mass.) using a MULTIDROP® dispenser (ThermoScientific, Waltham, Mass.). On the day of the experiment, growth medium was removed, and the no-wash FLIPR® Calcium-4 dye (λEX=470-495 nm, λEM=515-575 nm; Molecular Devices, Sunnyvale, Calif.) was added to each well using the MULTIDROP® dispenser. Cells were incubated for 90-120 minutes in the dark. The compounds were dissolved in DMSO to prepare a 10 mM stock solution. The intensity of the fluorescence was captured and digitally transferred to an interfaced PC. The peak increase in fluorescence over baseline, measured in relative fluorescence units, was calculated and expressed as the percentage of the maximal 2-APB (2-aminoethoxyldiphenyl borate) response (in the absence of compound). The concentration of 2-APB corresponds to its EC80.
As for `COc1ncnc(OC)c1C(=O)Nc1nc(C(F)(F)F)c(-c2cccc(C(F)(F)F)n2)s1` [Example 30, 4,6-dimethoxy-N-{4-(trifluoromethyl)-5-[6-(trifluoromethyl)pyridin-2-yl]-1,3-thiazol-2-yl}pyrimidine-5-carboxamide], the IC50 was < 50 nM.

Turning to `COc1ncnc(OC)c1C(=O)Nc1nc(C(F)(F)F)c(C2CCCOC2)s1` (single isomer, unassigned) [Example 149, 4,6-dimethoxy-N-{5-[(3S*)-tetrahydro-2H-pyran-3-yl]-4-(trifluoromethyl)-1,3-thiazol-2-yl}pyrimidine-5-carboxamide], the IC50 is > 1000 nM. Next, `COc1ncnc(OC)c1C(=O)Nc1nc(C(F)(F)F)c(-c2cnn(CC3CC3)c2)s1` [Example 175, N-{5-[1-(cyclopropylmethyl)-1H-pyrazol-4-yl]-4-(trifluoromethyl)-1,3-thiazol-2-yl}-4,6-dimethoxypyrimidine-5-carboxamide]: < 50 nM; `COc1ncnc(OC)c1C(=O)Nc1nc(C(F)(F)F)c(-c2cnc(N3CCOCC3)cn2)s1` [Example 29, 4,6-dimethoxy-N-{5-[5-(morpholin-4-yl)pyrazin-2-yl]-4-(trifluoromethyl)-1,3-thiazol-2-yl}pyrimidine-5-carboxamide]: 500 to 1000 nM; `COc1ncnc(OC)c1C(=O)Nc1nc(C(F)(F)F)c(-c2cccc(C3(C#N)COC3)n2)s1` [Example 154, N-{5-[6-(3-cyanooxetan-3-yl)pyridin-2-yl]-4-(trifluoromethyl)-1,3-thiazol-2-yl}-4,6-dimethoxypyrimidine-5-carboxamide]: 50 to 100 nM. Regarding `COc1ncnc(OC)c1C(=O)Nc1nc(-c2ccc(C(F)(F)F)cn2)c(C(C)O)s1` (single isomer, unassigned) [Example 83, N-{5-[(1R*)-1-hydroxyethyl]-4-[5-(trifluoromethyl)pyridin-2-yl]-1,3-thiazol-2-yl}-4,6-dimethoxypyrimidine-5-carboxamide], the IC50 fell in the range of 100 to 500 nM.

`COC/C=C/c1sc(NC(=O)c2c(OC)ncnc2OC)nc1C(F)(F)F` [Example 18, 4,6-dimethoxy-N-{5-[(1E)-3-methoxyprop-1-en-1-yl]-4-(trifluoromethyl)-1,3-thiazol-2-yl}pyrimidine-5-carboxamide]: the IC50 was < 50 nM. Take `CCc1sc(NC(=O)c2c(OC)ncnc2OC)nc1C(F)(F)F` [Example 6, N-[5-ethyl-4-(trifluoromethyl)-1,3-thiazol-2-yl]-4,6-dimethoxypyrimidine-5-carboxamide]: the IC50 is < 50 nM.

As to `COc1ncnc(OC)c1C(=O)Nc1nc(C(F)(F)F)c(-c2cnc(N3CCOCC3)nc2)s1` [Example 36, 4,6-dimethoxy-N-{5-[2-(morpholin-4-yl)pyrimidin-5-yl]-4-(trifluoromethyl)-1,3-thiazol-2-yl}pyrimidine-5-carboxamide], the IC50 lay within 50 to 100 nM. `COc1ncnc(OC)c1C(=O)Nc1nc(C(F)(F)F)c(CN2CC[C@H](OC)C2)s1` [Example 59, 4,6-dimethoxy-N-[5-{[(3S)-3-methoxypyrrolidin-1-yl]methyl}-4-(trifluoromethyl)-1,3-thiazol-2-yl]pyrimidine-5-carboxamide]: the IC50 was in the range of 500 to 1000 nM. Turning to `CCc1sc(NC(=O)c2c(OC)nc(C)nc2OC)nc1C(F)(F)F` [Example 69, N-[5-ethyl-4-(trifluoromethyl)-1,3-thiazol-2-yl]-4,6-dimethoxy-2-methylpyrimidine-5-carboxamide], the half-inhibitory concentration (IC50) was 50 to 100 nM. Regarding `COc1ncnc(OC)c1C(=O)Nc1nc(C(F)(F)F)cs1` [Example 3, 4,6-dimethoxy-N-[4-(trifluoromethyl)-1,3-thiazol-2-yl]pyrimidine-5-carboxamide], the IC50 fell in the range of 100 to 500 nM. As for `COc1ncnc(OC)c1C(=O)Nc1nc(-c2ccc(OC(F)(F)F)cc2)cs1` [Example 93, 4,6-dimethoxy-N-{4-[4-(trifluoromethoxy)phenyl]-1,3-thiazol-2-yl}pyrimidine-5-carboxamide], the IC50 is 100 to 500 nM.

Regarding `COc1ncnc(OC)c1C(=O)Nc1nc(-c2ccc(OC(F)(F)F)cn2)cs1` [Example 92, 4,6-dimethoxy-N-{4-[5-(trifluoromethoxy)pyridin-2-yl]-1,3-thiazol-2-yl}pyrimidine-5-carboxamide], the IC50 is < 50 nM. Turning to `COc1ncnc(OC)c1C(=O)Nc1nc(C(F)(F)F)c(C(C)=O)s1` [Example 133, N-[5-acetyl-4-(trifluoromethyl)-1,3-thiazol-2-yl]-4,6-dimethoxypyrimidine-5-carboxamide], the IC50 was in the range of 100 to 500 nM. As for `COc1ncnc(OC)c1C(=O)Nc1nc(C(F)(F)F)c(C2(O)CCOCC2)s1` [Example 117, N-[5-(4-hydroxytetrahydro-2H-pyran-4-yl)-4-(trifluoromethyl)-1,3-thiazol-2-yl]-4,6-dimethoxypyrimidine-5-carboxamide], the IC50 was > 1000 nM. On to `COc1ncnc(OC)c1C(=O)Nc1nc(C(F)(F)F)c(-c2ccc(Cl)cc2)s1` [Example 4, N-[5-(4-chlorophenyl)-4-(trifluoromethyl)-1,3-thiazol-2-yl]-4,6-dimethoxypyrimidine-5-carboxamide], for which the IC50 was in the range of 50 to 100 nM. For `COc1ncnc(OC)c1C(=O)Nc1nc(-c2ccc(C(F)(F)F)cn2)c(C(C)(C)O)s1` [Example 85, N-{5-(2-hydroxypropan-2-yl)-4-[5-(trifluoromethyl)pyridin-2-yl]-1,3-thiazol-2-yl}-4,6-dimethoxypyrimidine-5-carboxamide], the IC50 lay within 50 to 100 nM. As to `COc1ncnc(OC)c1C(=O)Nc1nc(C(F)(F)F)c(-c2ccncc2C#N)s1` [Example 24, N-[5-(3-cyanopyridin-4-yl)-4-(trifluoromethyl)-1,3-thiazol-2-yl]-4,6-dimethoxypyrimidine-5-carboxamide], the IC50 fell in the range of 100 to 500 nM. Regarding `COc1ncnc(OC)c1C(=O)Nc1nc(C(C)(C)C)c(Br)s1` [Example 192, N-(5-bromo-4-tert-butyl-1,3-thiazol-2-yl)-4,6-dimethoxypyrimidine-5-carboxamide], the IC50 is < 50 nM. Consider `COc1ncnc(OC)c1C(=O)Nc1nc(C(F)(F)F)c(C2OCCCO2)s1` [Example 139, N-[5-(1,3-dioxan-2-yl)-4-(trifluoromethyl)-1,3-thiazol-2-yl]-4,6-dimethoxypyrimidine-5-carboxamide], for which the IC50 was 100 to 500 nM. As to `COc1ncnc(OC)c1C(=O)Nc1nc(C(F)(F)F)c(C(=O)c2ccccn2)s1` [Example 127, 4,6-dimethoxy-N-[5-(pyridin-2-ylcarbonyl)-4-(trifluoromethyl)-1,3-thiazol-2-yl]pyrimidine-5-carboxamide], the IC50 was > 1000 nM. Next, `COc1ncnc(OC)c1C(=O)Nc1nc(-c2ccc(C(F)(F)F)cn2)c(C(C)=O)s1` [Example 87, N-{5-acetyl-4-[5-(trifluoromethyl)pyridin-2-yl]-1,3-thiazol-2-yl}-4,6-dimethoxypyrimidine-5-carboxamide]: 50 to 100 nM; `COc1cc(F)ccc1-c1csc(NC(=O)c2c(OC)ncnc2OC)n1` [Example 108, N-[4-(4-fluoro-2-methoxyphenyl)-1,3-thiazol-2-yl]-4,6-dimethoxypyrimidine-5-carboxamide]: 100 to 500 nM. On to `COc1nc(C#N)nc(C(F)(F)F)c1C(=O)Nc1nc(C(F)(F)F)c(I)s1` [Example 161, 2-cyano-N-[5-iodo-4-(trifluoromethyl)-1,3-thiazol-2-yl]-4-methoxy-6-(trifluoromethyl)pyrimidine-5-carboxamide], for which the concentration for half-maximal inhibition (IC50) lay in the range of 100 to 500 nM. In the case of `COc1ncnc(OC)c1C(=O)Nc1nc(C(F)(F)F)c(-c2ccnn2CC2CC2)s1` [Example 188, N-{5-[1-(cyclopropylmethyl)-1H-pyrazol-5-yl]-4-(trifluoromethyl)-1,3-thiazol-2-yl}-4,6-dimethoxypyrimidine-5-carboxamide], the IC50 was < 50 nM. As for `COc1ncnc(OC)c1C(=O)Nc1nc(C(F)(F)F)c(-c2ccnc(N3CCOCC3)c2)s1` [Example 182, 4,6-dimethoxy-N-{5-[2-(morpholin-4-yl)pyridin-4-yl]-4-(trifluoromethyl)-1,3-thiazol-2-yl}pyrimidine-5-carboxamide], the figure is 50 to 100 nM. Turning to `COc1ncnc(OC)c1C(=O)Nc1nc(C(F)(F)F)c(I)s1` [Example 2, N-[5-iodo-4-(trifluoromethyl)-1,3-thiazol-2-yl]-4,6-dimethoxypyrimidine-5-carboxamide], the IC50 is < 50 nM.

As a reminder, the IC50 is the midpoint of a concentration-inhibition curve.

(Values after US20180243298A1, “TRPV3 MODULATORS” (AbbVie Inc., priority 2015, published 2018).)
